# Data reported in patent publication US12453785B2, “Macrocyclic chelators and methods of use thereof” (JANSSEN BIOTECH, INC., priority 2019, dated 2025).
# “Also recorded” adds a separate entry of the source.
# How the values were obtained:
# Format in all cases: physicochemical
# [1] = ^225Ac(III) chelation / labeling, iTLC-SG analysis; conditions: pH ~6.5; for free ^225Ac by iTLC-SG before DTPA challenge / free Ac-225 at the solvent front of the iTLC-SG: free chelator; for free ^225Ac by iTLC-SG before DTPA challenge: high ^225Ac/chelator ratio (50 μCi), room temperature 1.5-2 hr; for free Ac-225 at the solvent front of the iTLC-SG: low ^225Ac/chelator ratio (30 μCi), room temperature 1-2 hr; for chelated Ac-225 (iTLC): free chelator (2 mg/mL 3 μL; ethoxylmethyl isomers 1 mg/mL 1 μL), 30 μCi ^225Ac, 37° C. 2 h
# [2] = Chelation test with Lanthanum (III) (HPLC, LCMS); conditions: La(NO3)3, room temperature
# Description: HPLC method: XBridge C18 3.5 μm 150×4.6 mm, 100 Å column; Mobile phase A: 0.1% TFA in H2O, B: 0.1% TFA in ACN; gradient 10% to 30% B in 0-20 min, gradient 30% to 100% B in 20-20.1 min, isocratic at 100% B in 20.1-25 min, gradient 100% to 10% B in 25-25.1 min, isocratic at 10% B in 25.1-30 min; postrun 3 min; flow rate 1 mL/min; column temperature 30° C.; injection volume 5 uL. Synthesis and Characterization of H2bp18c6-Benzyl-Phenyl
# An aqueous solution of H2bp18c6-benzyl-isopentyl in water (˜3 mg/mL=˜5 mM, 20 μL, 0.1 μmol) was treated with La(NO3)3 (10 mM in metal free water, 50 μL, 0.5 μmol). An aqueous solution of H2bp18c6-benzyl-phenyl in water (˜3 mg/mL=˜5 mM, 20 μL, 0.1 μmol) was treated with La(NO3)3 (10 mM in metal free water, 50 μL, 0.5 μmol). After thorough mixing, each solution was analyzed by LCMS and HPLC to determine whether complexes of the chelator and La^3+ formed.
# Complex formation was also confirmed by LCMS.
# [3] = DTPA challenge of ^225Ac complexes, iTLC-SG; conditions: 30 min; for free ^225Ac by iTLC-SG after DTPA challenge / free Ac-225 at the solvent front of the iTLC-SG after DTPA challenge: free chelator, 10 mM DTPA; for free ^225Ac by iTLC-SG after DTPA challenge: high ^225Ac/chelator ratio (50 μCi); for free Ac-225 at the solvent front of the iTLC-SG after DTPA challenge: low ^225Ac/chelator ratio; for chelated Ac-225 (iTLC) after DTPA: reaction mixture with 10 mM DTPA (pH 6.5)
# Description: DTPA challenge: 0.5 μL of the reaction mixture was mixed with 15 μL of 10 mM DTPA solution and the mixture was incubated for 30 min.
# DTPA challenge: 10 μL of fraction #3 collected after PD-10 column was mixed with 15 μL of 10 mM DTPA solution (pH 6.5), and incubated for 30 min.
# 0.5 μL of reaction mixture was mixed with 15 μL 10 mM DTPA (pH 6.5) and incubated for 30 min.
Structure (SMILES),chelated Ac-225 (iTLC) [1] [%],chelated Ac-225 (iTLC) after DTPA [3] [%],further results
CC(C)CCC(c1cccc(C(=O)O)n1)N1CCOCCOCCN(Cc2cccc(C(=O)O)n2)CCOCCOCC1 (centres unmarked),,,free ^225Ac by iTLC-SG before DTPA challenge [1]: No free ^225Ac was detected; free Ac-225 at the solvent front of the iTLC-SG [1]: No radioactivity was observed at the solvent front; chelation with La^3+ (shift in HPLC peak retention time) [2]: rapid chelation; chelation with La^3+ (shift in HPLC peak retention time) ([2]; listed as isopentane-H2bp18c6): rapid and stoichiometric chelation; free ^225Ac by iTLC-SG after DTPA challenge [3]: No free ^225Ac was detected; free Ac-225 at the solvent front of the iTLC-SG after DTPA challenge [3]: No radioactivity was observed at the solvent front
O=C(O)c1cccc(CN2CCOCCOCCN(Cc3cccc(C(=O)O)n3)CCO[C@@H]3CCC[C@@H]3OCC2)n1,99,99,
O=C(O)c1cccc(CN2CCOCCOCCN(Cc3cccc(C(=O)O)n3)CCO[C@@H]3CCCC[C@H]3OCC2)n1,99,99,
O=C(O)c1cccc(CN2CCOCCOCCN(Cc3cccc(C(=O)O)n3)CCO[C@@H]3CCC[C@H]3OCC2)n1,99,99,
"CCOC[C@@H]1COCCN(Cc2cccc(C(=O)O)n2)CCOCCOCCN(Cc2cccc(C(=O)O)n2)CCO1 (single isomer, unassigned) [H2bp18c6-off Macrocycle-ethoxylmethyl isomer II]",99,99,
"CCOC[C@H]1COCCN(Cc2cccc(C(=O)O)n2)CCOCCOCCN(Cc2cccc(C(=O)O)n2)CCO1 (single isomer, unassigned) [H2bp18c6-off Macrocycle-ethoxylmethyl isomer I]",99,99,
"O=C(O)c1cccc(CN2CCOCCOCCN(Cc3cccc(C(=O)O)n3)CCO[C@H](CO)COCC2)n1 (single isomer, unassigned) [H2bp18c6-off Macrocycle-hydroxylmethyl isomer II]",99,99,
"O=C(O)c1cccc(CN2CCOCCOCCN(Cc3cccc(C(=O)O)n3)CCO[C@@H](CO)COCC2)n1 (single isomer, unassigned) [H2bp18c6-off Macrocycle-hydroxylmethyl isomer I]",99,99,
O=C(NCCC(=O)N1Cc2ccccc2C#Cc2ccccc21)c1ccc(C(c2cccc(C(=O)O)n2)N2CCOCCOCCN(Cc3cccc(C(=O)O)n3)CCOCCOCC2)cc1 (centres unmarked) [H2bp18c6-benzyl-phenyl-DBCO],,,free Ac-225 at the solvent front of the iTLC-SG [1]: No radioactivity activity was observed at the solvent front; free Ac-225 at the solvent front of the iTLC-SG after DTPA challenge [3]: No radioactivity was detected at the solvent front
O=C(O)c1cccc(CN2CCOCCOCCN(C(c3ccccc3)c3cccc(C(=O)O)n3)CCOCCOCC2)n1 (centres unmarked) [H2bp18c6-benzyl-phenyl],,,free ^225Ac by iTLC-SG before DTPA challenge [1]: No free ^225Ac was detected; free Ac-225 at the solvent front of the iTLC-SG [1]: No free ^225Ac ion was detected; also recorded: No radioactivity was observed at the solvent front; chelation with La^3+ (shift in HPLC peak retention time) [2]: rapid and stoichiometric chelation; free ^225Ac by iTLC-SG after DTPA challenge [3]: No free ^225Ac was detected; free Ac-225 at the solvent front of the iTLC-SG after DTPA challenge [3]: No free ^225Ac was detected after DTPA challenge
O=C(O)c1cccc(CN2CCOCCOCCN(Cc3cccc(C(=O)O)n3)CCO[C@@H]3CCCC[C@@H]3OCC2)n1 [H2bp18c6-cis-cyclohexyl-fused Macrocycle],99,99,
